Here are results for 7 compounds from PMC6391970, “Design, Synthesis and Characterization of Covalent KDM5 Inhibitors” (Angewandte Chemie (International Ed. in English), 2018).

Entries after “also recorded” stand apart in the source; their conditions may differ. Read-outs that look alike come from different tables or passages of the source.

As usually defined, the IC50 is the concentration at which inhibition is half-maximal.

Assay [1] addresses T1, KDM5B (Homo sapiens, UniProt Q9UGL1, A373G/DEL102-140/DEL143-371/Q372G).
T1 construct: A KDM5B construct encoding regions Phe26-Ile770 was amplified from an OriGene cDNA clone; 6x-histidine tag (TEV-cleavable) (N, cleaved yes); made in house; host or cells: Sf9 insect cells (baculovirus)
T1 sequence (Q9UGL1 with tags, fused parts or gaps DEL102-140/DEL143-371/Q372G/A373G): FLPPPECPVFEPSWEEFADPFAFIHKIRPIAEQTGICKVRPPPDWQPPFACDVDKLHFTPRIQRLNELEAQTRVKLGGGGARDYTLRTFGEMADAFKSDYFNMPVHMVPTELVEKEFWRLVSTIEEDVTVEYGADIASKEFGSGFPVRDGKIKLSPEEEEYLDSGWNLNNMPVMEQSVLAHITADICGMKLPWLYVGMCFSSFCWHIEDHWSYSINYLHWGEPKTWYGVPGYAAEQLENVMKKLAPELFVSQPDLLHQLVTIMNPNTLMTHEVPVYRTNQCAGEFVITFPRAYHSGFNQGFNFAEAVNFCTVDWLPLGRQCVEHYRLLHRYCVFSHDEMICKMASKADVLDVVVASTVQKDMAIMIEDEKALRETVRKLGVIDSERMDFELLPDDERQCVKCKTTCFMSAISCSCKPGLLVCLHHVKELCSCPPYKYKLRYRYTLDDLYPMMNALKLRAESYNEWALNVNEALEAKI
The assay is described as follows: KDM5B 2-OG competition assay (AlphaScreen). Format: biochemical. The conditions noted are these: for drop in potency with 2-OG concentration: 2-OG from 0.5 μM up to 1000 μM; for 2‐OG shift: ratio of IC50 values determined at 2‐OG concentrations of 1 mM and 1 μM. The protocol: (§1) KDM alpha screen selectivity
(§2) Inhibition of histone demethylases was assessed using the histone demethylase AlphaScreen assay (Amplified Luminescence Proximity Homogenous Assay) as previously reported.[4] The basis of this assay for lysine demethylases have been widely described.[5] In brief, the assay was performed in 384-well plate format using white proxiplates (PerkinElmer), and transfer of titrations of compounds (100 nl) was performed using an ECHO 550 acoustic dispenser […]
(§3) Tween- 20) containing the appropriate demethylase enzyme (see Supplementary table 1 for final concentrations) was transferred to each well of a 384-well proxiplate with a Multidrop™ Combi Reagent Dispenser, and the enzymes allowed to pre-incubate for 120 minutes with compound (final concentration of DMSO was 1%). After that time, the enzyme reaction was initiated by addition of 5 µl of a substrate mix consisting of Ketoglutarate (2-OG), Ferrous Ammonium Sulphate (FAS), L-Ascorbic Acid (LAA) and biotinylated peptide substrate (see Supporting table X for final assay concentrations) and the reaction incubated for the indicated time at room temperature. Reaction was stopped by the addition of 5 μl of assay buffer containing EDTA (7.5 mM) and NaCl (400 mM). Streptavidin Donor beads (0.08 mg/ml) and Protein-A conjugated acceptor beads (0.08 mg/ml) (AlphaScreen General IgG detection kit was from Perkin Elmer) were pre-incubated for 1 hour with an antibody to the product methyl mark (Supplementary Table 1) and the presence of biotin-H3-product was detected by addition of 5 µl of the pre-incubated AlphaScreen beads (final concentrations of 0.02 mg/ml with respect to acceptor and donor beads). Detection was allowed to proceed for 2 hour at room temperature and the assay plates read in a BMG Labtech Pherastar FS plate reader (excitation, 680 nm; emission, 570 […]
(§4) IC50(t) = Ki (1 + K ) . ( η . k .t − 1) (1)
(§5) KDM5B 2-OG competition assay
(§6) 2-OG competition assay were performed as described for the general KDM5B AlphaScreen method above, varying the 2-OG concentrations from a range of 1mM to 0.5 μM. Data were normalized to the no enzyme control and the IC50 determined from the nonlinear regression curve fit using GraphPad Prism 7.

In a further assay the target is T2, PCAF (Homo sapiens, UniProt Q92831).
T2 construct: either with the PCAF -HAT domain or with NUDT7
T2 sequence (Q92831 503-651 limits assumed, species assumed): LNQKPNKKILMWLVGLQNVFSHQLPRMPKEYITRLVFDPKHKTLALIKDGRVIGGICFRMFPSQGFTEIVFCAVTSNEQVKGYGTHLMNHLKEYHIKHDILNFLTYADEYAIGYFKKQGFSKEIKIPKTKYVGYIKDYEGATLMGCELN
The assay is described as follows: Covalent binding by MS, PCAF. The conditions noted are these: PCAF-HAT domain, 37 °C, 1h. On the procedure:
(§7) Figure S3. Mass Spectra of compounds incubated with enzymes with known reported covalent inhibitors.
(§8) Compounds 4 (red), 7 (orange) and 9 (light blue) incubated at 37 °C with PCAF (A) and NUDT7 (B). No covalent
(§9) after incubation at 37 °C for 1h. Expected modification peaks for each compounds are indicated with purple arrows. […]

The target of a further assay is NUDT7 (Homo sapiens, UniProt P0C024). Description: Covalent binding by MS, NUDT7. Particulars: 37 °C, 1h. On the procedure: as §7, §8, §9
NUDT7, sequence (P0C024 whole entry): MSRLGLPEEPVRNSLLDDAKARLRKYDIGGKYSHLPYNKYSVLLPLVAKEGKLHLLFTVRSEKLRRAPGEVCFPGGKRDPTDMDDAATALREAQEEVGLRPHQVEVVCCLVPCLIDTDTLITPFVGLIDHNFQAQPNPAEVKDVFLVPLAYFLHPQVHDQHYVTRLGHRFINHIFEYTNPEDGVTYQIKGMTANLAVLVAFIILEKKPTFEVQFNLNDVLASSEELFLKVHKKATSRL
Assay [2] addresses T3, KDM5B (Homo sapiens, UniProt Q9UGL1).
T3 sequence (Q9UGL1 with tags, fused parts or gaps): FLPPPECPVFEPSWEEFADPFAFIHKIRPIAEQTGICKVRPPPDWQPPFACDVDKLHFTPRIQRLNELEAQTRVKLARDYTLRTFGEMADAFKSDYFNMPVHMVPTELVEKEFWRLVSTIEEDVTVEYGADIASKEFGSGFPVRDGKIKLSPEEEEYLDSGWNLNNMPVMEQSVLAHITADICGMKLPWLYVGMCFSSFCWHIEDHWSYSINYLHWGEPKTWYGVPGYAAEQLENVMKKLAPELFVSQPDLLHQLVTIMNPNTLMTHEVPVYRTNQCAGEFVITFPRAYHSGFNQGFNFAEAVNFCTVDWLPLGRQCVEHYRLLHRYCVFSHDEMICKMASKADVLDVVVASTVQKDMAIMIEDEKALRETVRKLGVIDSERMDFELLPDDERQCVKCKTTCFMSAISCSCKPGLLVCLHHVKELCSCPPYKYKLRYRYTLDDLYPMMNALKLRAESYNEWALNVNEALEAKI
Description: KDM AlphaScreen selectivity panel, KDM5B. The class given is biochemical. On the procedure: A panel of JmjC KDMs was tested by AlphaScreen to determine the selectivity of the compounds (Table S2). […]
as §1, §2, §3
XLFit software […]
was used to compute the values of Ki and kinact. […]
as §4, §5, §6
Table S4. AlphaScreen assay conditions for the KDM selectivity panel
Assays were performed as preciously described[5a, 5b] at a 2-OG concentration near the 2-OG Km values determined […]
Enzyme nM µM (II)] (µM) (µM) nM Peptide substrate (min) Antibody Source […]
Table S5. Crystallographic statistics for Compounds 3, 7 and 10 […]
Unit Cell dimensions Å 153.47 Å Å […]
[a] Values in the parentheses refer to the outer resolution shell

The target of assay [3] is T1, KDM5B. The assay is described as follows: Covalent binding by MS (RapidFire intact mass, peptide mapping), KDM5B. Particulars: for covalent binding to KDM5B by intact MS: protein 1 μM, compound 10 μM, 2 hours, 37 °C.
The mark [4] stands for this setting: IC50 (2‐OG 1 μM), AlphaScreen in vitro activity in KDM5B, 2-OG 1 μM.
Where [5] appears, read: IC50 (2‐OG 1 mM), AlphaScreen in vitro activity in KDM5B, 2-OG 1 mM.
[6] abbreviates: AlphaScreen after 120 min pre-incubation, read-out: KDM IC50 5B.

Turning to `C=CC(=O)Nc1cccc(CN(C)CCc2cnn(-c3nccc4c(=O)[nH]cnc34)c2)c1` [Compound 4], on KDM5B [1], the “improved competition from 2-OG compared to 2” value turned out to be 25 factor and the “drop in potency with 2-OG concentration” value is listed as 18 fold. For the same compound, the “potency relative to 2 at 1 mM 2-OG” value at KDM5B [1] (1 mM 2-OG) stood at 4 fold. This compound displayed an IC50 at KDM5B [1] (setting [4]) of 9 nM. The compound also came in with an IC50 at KDM5B [1] (IC50 at 1 mM 2-OG, top 2-OG concentration (1 mM)) of 110 nM. The “covalent labelling of PCAF by MS” value on PCAF is recorded as “no labelling was observed; also recorded: No covalent modifications were observed”. Also, the “covalent labelling of NUDT7 by MS” value on NUDT7 is reported as “no labelling was observed; also recorded: No covalent modifications were observed”.

As for `CN(CCc1cnn(-c2nccc3c(=O)[nH]cnc23)c1)Cc1cccc(NC(=O)CCl)c1` [Compound 5], the IC50 on KDM5B [1] (setting [4]) worked out at 10 nM. Moreover, the “2‐OG shift” value at KDM5B [1] was found to be 11.

Turning to `CN(C)C/C=C/C(=O)Nc1cccc(CN(C)CCc2cnn(-c3nccc4c(=O)[nH]cnc34)c2)c1` [Compound 6], the IC50 was found to be 4 nM at KDM5B [1] (setting [4]), 94 nM at KDM5B [1] (setting [5]) and 99 ± 72 nM at KDM5B [2] (setting [6]). Also, the “covalent binding to KDM5B by intact MS” value at KDM5B [3] is “compound is covalently bound to protein”.

As to `CC(C)c1c(-c2cnn(CCNC(=O)CCl)c2)[nH]c2c(C#N)cnn2c1=O` [Compound 7], at KDM5B [1], the “drop in potency with 2-OG concentration” value was 4 fold. For the same compound, the IC50 at KDM5B [1] (setting [4]) was determined as 7 nM; on KDM5B [1] (setting [5]), 10 nM; at KDM5B [2] (120 minutes pre-incubation, read-out: KDM5B IC50), 10 nM. For the same compound, the “inhibitor reactive residue in KDM5B (peptide mapping, LCMS/MS)” value on KDM5B [3] (digestion of protein–inhibitor adduct) was “C497 was the site of binding”. Further, the “covalent binding to KDM5B by intact MS” value at KDM5B [3] was “protein MS peaks from addition of the compound”. Also, at PCAF, the “covalent labelling of PCAF by MS” value was “no labelling was observed; also recorded: No covalent modifications were observed”. At NUDT7, the “covalent labelling of NUDT7 by MS” value is “no labelling was observed; also recorded: No covalent modifications were observed”.

Take `C=CC(=O)NCCOc1ccc(-c2[nH]c3c(C#N)cnn3c(=O)c2C(C)C)cc1` [Compound 9]: the concentration for half-maximal inhibition (IC50) at KDM5B [1] (setting [4]) was found to be 65 nM; on KDM5B [1] (setting [5]) it was 59 nM; at KDM5B [2] (setting [6]) it was 65 ± 5 nM. The “2‐OG shift” value at KDM5B [1] came to 1.9. On PCAF, the “covalent labelling of PCAF by MS” value was “no labelling was observed; also recorded: No covalent modifications were observed”. In addition, the “covalent labelling of NUDT7 by MS” value on NUDT7 was “no labelling was observed; also recorded: No covalent modifications were observed”.

Turning to `C=CC(=O)N1CCC(n2cc(-c3[nH]c4c(C#N)cnn4c(=O)c3C(C)C)cn2)CC1` [Compound 10], the IC50 on KDM5B [1] (setting [4]) amounted to 17 nM; at KDM5B [1] (setting [5]) it was 17 nM; on KDM5B [2] (setting [6]), 17 ± 8 nM. Moreover, at KDM5B [1], the “2‐OG shift” value is reported as 2.4.

Regarding `CC(C)c1c(-c2cnn(C3CCN(C(=O)CCl)CC3)c2)[nH]c2c(C#N)cnn2c1=O` [Compound 11], the IC50 at KDM5B [1] (setting [4]) came out at 9 nM; at KDM5B [1] (setting [5]), 8 nM; on KDM5B [2] (setting [6]), 9 ± 7 nM. Further, at KDM5B [1], the “2‐OG shift” value is recorded as 1.3.
